Data reported in US20250296938A1, “Compounds that Interact with the Ras Superfamily for the Treatment of Cancers, Inflammatory Diseases, Rasopathies, and Fibrotic Disease” (SHY Therapeutics, LLC, priority 2018, published 2025).
Like-named read-outs stand apart in the source and are kept apart here.

Columns and labels:
Test in all cases: Ras GTP binding domain inhibition assay (Cy3-GTP/Cy5-GTP competition)
[1] = molecular target: T1, KRas G12D mutant (Homo sapiens, UniProt P01116, G12D); conditions: at 20 μM
T1 construct: fused on or other part: His tag, used for capture on nickel-coated plates
How it was run: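 His-tagged Ras immobilized on nickel-coated wells in Tris buffer (pH 7.4 or 7.0) with 1 mM MgCl2, 1 mM DTT, 1% DMSO. Compound (20 μM, or serial dilution for IC50) incubated 3 hours at room temperature, ± Sos (residues 556-1049) in final hour. Bound 100 nM Cy3-/Cy5-GTP read after 45 minutes and washing.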

[2] = molecular target: Rac-1 (Homo sapiens, UniProt P63000)
How it was run: (§1)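 First, His-tagged protein is coated on nickel wells overnight at 4 °C. Next, compound (20 μM single point or serial dilution) is added for 3 h at room temperature, with or without Sos exchange factor in the last hour. Finally, 100 nM labelled GTP binds for 45 min and retained signal is measured.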

[3] = molecular target: Rho-A (Homo sapiens, UniProt P61586)
How it was run: as §1

[4] = with SOS, read-out: KRas G12D mutant + SOS: % inh.
[5] = without SOS, read-out: KRas G12D mutant: % inh.
[6] = with SOS, read-out: Rac-1 + SOS: % inh.
[7] = without SOS, read-out: Rac-1: % inh.
[8] = with SOS, read-out: Rho-A + SOS: % inh.
[9] = without SOS, read-out: Rho-A: % inh.

| Compound | inhibition at 20 µM [1, 4] [%] | inhibition at 20 µM [1, 5] [%] | inhibition at 20 µM [2, 6] [%] | inhibition at 20 µM [2, 7] [%] | inhibition at 20 µM [3, 8] [%] | inhibition at 20 µM [3, 9] [%] |
| --- | --- | --- | --- | --- | --- | --- |
| CCn1cc(Nc2nc(-c3ccccn3)nc(O)c2OC)cn1 [drawing 1016] | 26 to 50 | 26 to 50 | 76 to 100 | 51 to 75 | 51 to 75 | 51 to 75 |
| COc1c(O)nc(-c2ccccn2)nc1Oc1cnn(C)c1 [drawing 938] | 51 to 75 | 51 to 75 | 76 to 100 | 76 to 100 | 51 to 75 | 51 to 75 |
| COc1c(O)nc(-c2ccccn2)nc1Oc1cccnc1 [drawing 937] | 51 to 75 | 51 to 75 | 76 to 100 | 76 to 100 | 76 to 100 | 76 to 100 |
| O=C(c1nc(-c2ccccn2)nc(O)c1O)N1CCOCC1 [drawing 935] | 26 to 50 | 26 to 50 | 26 to 50 | 51 to 75 | 26 to 50 | 26 to 50 |
| Oc1nc(-c2ncc3ccccn23)nc2c(-c3ccccn3)csc12 [drawing 969] | 51 to 75 | 76 to 100 | 76 to 100 | 76 to 100 | 76 to 100 | 76 to 100 |
| COCCn1cc(Nc2nc(-c3ccccn3)nc(OC)c2OC)cn1 [drawing 928] | 1 to 25 | 1 to 25 | 1 to 25 | 1 to 25 | 0 | 0 |
| Cc1cc(Cn2ccnc2-c2nc(O)c3scc(-c4ccccn4)c3n2)on1 [drawing 981] | 26 to 50 | 51 to 75 | 51 to 75 | 51 to 75 | 26 to 50 | 1 to 25 |

Next, values leading:

| inhibition at 20 µM [1, 4] [%] | inhibition at 20 µM [1, 5] [%] | inhibition at 20 µM [2, 6] [%] | inhibition at 20 µM [2, 7] [%] | inhibition at 20 µM [3, 8] [%] | inhibition at 20 µM [3, 9] [%] | Compound |
| --- | --- | --- | --- | --- | --- | --- |
| 51 to 75 | 51 to 75 | 51 to 75 | 51 to 75 | 76 to 100 | 76 to 100 | CO[C@H]1CC[C@@H](Nc2nc(-c3nccn3C)nc3sc(-c4ccn(C(C)C)n4)c(-c4ccccc4)c23)C1 [drawing 1047] |
| 51 to 75 | 51 to 75 | 0 | 0 | 51 to 75 | 51 to 75 | COCC1CN(c2nc(-c3nccn3C)nc3sc(-c4cccc(OC)c4F)c(-c4ccc(OC)cc4)c23)C1 [drawing 940] |
| 76 to 100 | 76 to 100 | 51 to 75 | 76 to 100 | 51 to 75 | 76 to 100 | Cc1c(-c2ccn(C)n2)sc2nc(-c3nccn3C)nc(NCCOC(=O)N(C)C)c12 [drawing 1053] |
| 51 to 75 | 76 to 100 | 76 to 100 | 76 to 100 | 51 to 75 | 26 to 50 | COc1cccc(Cn2ccnc2-c2nc(O)c3scc(-c4ccccn4)c3n2)c1 [drawing 985] |
| 51 to 75 | 26 to 50 | 0 | 0 | 26 to 50 | 51 to 75 | COc1ccc(-c2sc3nc(-c4nccn4C)nc(N4CCC(OC)C4)c3c2-c2ccccc2)cn1 (stereo not drawn) [drawing 971] |
